Read-outs that look alike come from different tables or passages of the source. No end group written: not given here.
Key:
Sir2Af2-Met70Arg = Sir2Af2-Met70Arg (Archaeoglobus fulgidus, UniProt O30124, M70R); experiment: MS-based peptide deacylation assay, Sir2Af2-Met70Arg variant; settings: for IC50: IC50 nicotinamide inhibition
Method: (§1) Samples were diluted with 0.1% formic acid and filtered using 10 kDa cutoff concentrators. Samples were analyzed on an LC-ESI-MS system consisting of a Prominence HPLC (Shimadzu, Duisburg, Germany) with Sil20AC autosampler connected to an LTQ XL mass spectrometer (Thermo Fisher, Bremen, Germany). […] Extracted ion chromatograms (XICs) with mass windows of ±2 m/z were generated for the acylated and deacylated peptide, and peak areas were determined using automatic peak area detection of the Xcalibur Qual Browser module and further analyzed with Excel (Microsoft, Seattle, USA) or GraFit (Erithacus Software, West Sussex, UK).

Sirt5Zf = biological target: T1, Sirt5Zf (Danio rerio, UniProt Q6DHI5); experiment: MS-based peptide deacylation assay, zebrafish Sirt5; format: biochemical; settings: deacetylation, CPS1 peptide (Fig. S3)
T1 construct: zebrafish Sirt5 (residues 30- 298); 6x His tag with TEV protease cleavage site (N); made in house; host or cells: E. coli BL21DE3 Rosetta 2
T1 sequence (Q6DHI5 30-298): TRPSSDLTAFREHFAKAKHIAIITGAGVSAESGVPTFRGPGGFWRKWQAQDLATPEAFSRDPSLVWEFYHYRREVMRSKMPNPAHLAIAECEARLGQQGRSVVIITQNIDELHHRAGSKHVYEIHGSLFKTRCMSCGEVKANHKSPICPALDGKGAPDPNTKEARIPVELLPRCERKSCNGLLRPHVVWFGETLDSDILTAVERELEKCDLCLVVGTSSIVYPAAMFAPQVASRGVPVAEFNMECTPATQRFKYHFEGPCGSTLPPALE
Method: as §1

Sir2Af2 = biological target: T2, Sir2Af2 (Archaeoglobus fulgidus, UniProt O30124); experiment: MS-based peptide deacylation assay, Sir2Af2 wt; format: biochemical; settings: for IC50: IC50 nicotinamide inhibition; for normalized desuccinylation [%]: succinylated Prx1-Lys197
T2 construct: host or cells: E. coli BL21DE3 Rosetta2
T2 sequence (O30124 1-253): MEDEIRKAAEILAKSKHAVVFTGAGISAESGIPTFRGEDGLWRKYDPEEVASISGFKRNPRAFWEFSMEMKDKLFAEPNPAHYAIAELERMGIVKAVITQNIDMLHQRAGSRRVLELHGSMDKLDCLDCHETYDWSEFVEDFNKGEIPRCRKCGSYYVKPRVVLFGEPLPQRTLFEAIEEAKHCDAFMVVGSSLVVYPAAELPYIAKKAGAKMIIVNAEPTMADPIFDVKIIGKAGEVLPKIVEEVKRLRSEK
Method: as §1

human Sirt3 = biological target: T3, human Sirt3 (Homo sapiens, UniProt Q9NTG7); experiment: Binding analysis by microscale thermophoresis, Sirt3
T3 construct: human Sirt3 (residues 114-380); 6x His tag with TEV protease cleavage site (N); made in house; host or cells: E. coli BL21DE3 Rosetta 2
T3 sequence (Q9NTG7 114-380): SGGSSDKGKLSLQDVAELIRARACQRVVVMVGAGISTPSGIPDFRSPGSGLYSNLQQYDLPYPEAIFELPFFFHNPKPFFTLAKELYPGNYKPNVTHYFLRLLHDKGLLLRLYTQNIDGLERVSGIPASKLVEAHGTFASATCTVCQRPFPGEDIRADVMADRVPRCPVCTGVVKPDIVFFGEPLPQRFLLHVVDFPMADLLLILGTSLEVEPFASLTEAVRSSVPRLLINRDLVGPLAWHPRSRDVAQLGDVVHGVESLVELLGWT
Method: Non-bound dye was removed using a Nap25 column (GE Healthcare). Dissociation constants were determined from microscale thermophoresis using a Monolith NT.115 (NanoTemper Technologies, Munich, Germany). […] Dissociation constants were determined by non-linear fitting in GraFit.

human Sirt5 [1] = biological target: T4, human Sirt5 (Homo sapiens, UniProt Q9NXA8); experiment: Binding analysis by microscale thermophoresis, Sirt5
T4 construct: (residues 34- 302); 6x His tag with TEV protease cleavage site (N); made in house; host or cells: E. coli BL21DE3 Rosetta 2
T4 sequence (Q9NXA8 34-302): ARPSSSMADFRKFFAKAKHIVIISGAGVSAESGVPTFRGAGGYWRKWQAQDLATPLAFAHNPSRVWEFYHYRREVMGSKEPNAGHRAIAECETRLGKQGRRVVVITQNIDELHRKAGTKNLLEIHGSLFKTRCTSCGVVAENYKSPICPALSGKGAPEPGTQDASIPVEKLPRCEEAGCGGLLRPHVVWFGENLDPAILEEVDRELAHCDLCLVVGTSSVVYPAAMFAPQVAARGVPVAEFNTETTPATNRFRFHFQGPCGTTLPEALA
Method: For labeling, 100 µM Sirtuin were incubated with 200 µM fluorescein isothiocyanate (Thermo Fisher) in 20 mM HEPES pH 7.5, 150 mM NaCl over night at 4°C in the dark. Non-bound dye was removed using a Nap25 column (GE Healthcare). Dissociation constants were determined from microscale thermophoresis using a Monolith NT.115 (NanoTemper Technologies, Munich, Germany). […] Dissociation constants were determined by non-linear fitting in GraFit.

Sirt3 = settings: read-out: KM apparent affinity for cosubstrate; cited from earlier work
human Sirt5 [2] = biological target: T5, human Sirt5 (human, UniProt Q9NXA8 37-310, labelled with fluorescein isothiocyanate (sites not given)); experiment: MST; ligand (peptide) titrated to 100 nM fluorescein-labelled Sirtuin; mixtures preincubated 30 min at room temperature; Monolith NT.115; non-linear fitting in GraFit; settings: both partners purified
T5 construct: Sirt5, human; a 'gene fragment' cloned into pET151/D-Topo
T5 sequence (looked up): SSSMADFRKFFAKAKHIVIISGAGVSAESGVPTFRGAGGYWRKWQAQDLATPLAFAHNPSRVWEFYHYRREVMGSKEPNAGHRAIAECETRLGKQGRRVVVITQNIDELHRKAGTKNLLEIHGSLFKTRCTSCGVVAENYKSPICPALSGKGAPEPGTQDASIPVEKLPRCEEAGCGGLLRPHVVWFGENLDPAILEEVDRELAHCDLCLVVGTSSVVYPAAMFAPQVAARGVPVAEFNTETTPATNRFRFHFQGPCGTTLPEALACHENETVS

[3] = read-out: normalized deacetylation [%]
[4] = 25 µM substrate peptide, read-out: Kd for NAD^+ under peptide saturation
[5] = in presence of 0.5 mM nicotinamide, read-out: Kd(NAD^+)
[6] = no nicotinamide, no peptide, read-out: Kd(NAD^+)

Chain of Sir2Af2-Met70Arg (O30124 whole entry M70R): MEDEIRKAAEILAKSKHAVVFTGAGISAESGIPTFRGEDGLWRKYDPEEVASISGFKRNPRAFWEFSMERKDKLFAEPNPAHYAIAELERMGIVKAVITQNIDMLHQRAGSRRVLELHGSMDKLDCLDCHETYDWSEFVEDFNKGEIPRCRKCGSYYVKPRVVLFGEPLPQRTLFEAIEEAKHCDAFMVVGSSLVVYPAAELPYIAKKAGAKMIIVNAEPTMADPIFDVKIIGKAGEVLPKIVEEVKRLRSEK

Molecule: NC(=O)c1cccnc1 [nicotinamide]
- IC50 (Sir2Af2-Met70Arg; deacetylase activity, acetylated Prx1-Lys197): > 10000 µM
- IC50 (Sir2Af2-Met70Arg; desuccinylase activity, succinylated Prx1-Lys197): 2800 ± 900 µM
- remaining activity at 1 µM (Sir2Af2-Met70Arg; [3]): 100%
- remaining activity at 10 µM (Sir2Af2-Met70Arg; [3]): 98.1%
- remaining activity at 100 µM (Sir2Af2-Met70Arg; [3]): 96.1%
- remaining activity at 500 µM (Sir2Af2-Met70Arg; [3]): 69.7%
- remaining activity at 1000 µM (Sir2Af2-Met70Arg; [3]): 86.4%
- remaining activity at 5000 µM (Sir2Af2-Met70Arg; [3]): 71.4%
- remaining activity at 10000 µM (Sir2Af2-Met70Arg; [3]): 52.6%
- IC50 (Sirt5Zf): 6900 ± 500 µM
- IC50 (Sir2Af2; acetyl-CPS1 substrate): 5800 ± 1600 µM
- IC50 (Sir2Af2; acetyl-Prx1 substrate): 1300 ± 300 µM
- IC50 (Sir2Af2; deacetylation, p53 peptide (Fig. S3)): 2100 ± 150 µM
- IC50 (Sir2Af2; succinyl-CPS1 substrate): 6600 ± 500 µM
- IC50 (Sir2Af2; succinyl-Prx1 substrate): > 10000 µM
- remaining activity at 1 µM (Sir2Af2; NAM 1 µM, acetylated Prx1-Lys197, wt, read-out: normalized deacetylation [%]): 88.7%
- normalized desuccinylation [%] (Sir2Af2; NAM 1 µM, wt): 100.0%
- remaining activity at 10 µM (Sir2Af2; NAM 10 µM, acetylated Prx1-Lys197, wt, read-out: normalized deacetylation [%]): 101%
- normalized desuccinylation [%] (Sir2Af2; NAM 10 µM, wt): 96.1%
- remaining activity at 100 µM (Sir2Af2; NAM 100 µM, acetylated Prx1-Lys197, wt, read-out: normalized deacetylation [%]): 93%
- normalized desuccinylation [%] (Sir2Af2; NAM 100 µM, wt): 95.7%
- remaining activity at 500 µM (Sir2Af2; NAM 500 µM, acetylated Prx1-Lys197, wt, read-out: normalized deacetylation [%]): 65.4%
- remaining activity at 1000 µM (Sir2Af2; NAM 1000 µM, acetylated Prx1-Lys197, wt, read-out: normalized deacetylation [%]): 49.8%
- normalized desuccinylation [%] (Sir2Af2; NAM 1000 µM, wt): 88.3%
- remaining activity at 5000 µM (Sir2Af2; NAM 5000 µM, acetylated Prx1-Lys197, wt, read-out: normalized deacetylation [%]): 30.4%
- normalized desuccinylation [%] (Sir2Af2; NAM 5000 µM, wt): 78.1%
- normalized desuccinylation [%] (Sir2Af2; NAM 10000 µM, wt): 69.1%

Molecule: NC(=O)c1ccc[n+]([C@@H]2O[C@H](COP(=O)([O-])OP(=O)(O)OC[C@H]3O[C@@H](n4cnc5c(N)ncnc54)[C@H](O)[C@@H]3O)[C@@H](O)[C@H]2O)c1 [NAD^+]
- Kd (human Sirt3; [4]): 260 ± 150 µM
- Kd (human Sirt3; [5]): 830 ± 240 µM
- Kd (human Sirt3; [6]): 710 ± 230 µM
- Kd (human Sirt5 [1]; [4]): 200 ± 70 µM
- Kd (human Sirt5 [1]; [5]): 920 ± 230 µM
- Kd (human Sirt5 [1]; [6]): 980 ± 280 µM
- Km (Sirt3): 100 to 600 µM

B1: CPS1-Lys527 peptide (FKRGVL(acK)EYGVKV) (peptide)
peptide: FKRGVLK(Ac)EYGVKV
notes: carbamoyl phosphate synthetase 1 (CPS1), stretch around the acetylation site Lys527; also called CPS1 peptide; source: synthetic peptide, bought: GL Biochem (Shanghai)
- Kd (human Sirt5 [2]): 2.3 ± 1.5 µM

B2: ACS2-Lys642 peptide (TRSG(acK)VMR) (peptide)
peptide: TRSGK(Ac)VMR
notes: acetyl-CoA synthetase 2 (ACS2), stretch around the acetylation site Lys642; also called ACS2 peptide; source: synthetic peptide, bought: GL Biochem (Shanghai)
- Kd (human Sirt5 [2]): 2.1 ± 0.7 µM

Source: publication PMC3446968 (PLoS ONE, 2012)
